# Like-named read-outs stand apart in the source and are kept apart here.
# Tests used:
# rat tracheal rings [1] = test: Relaxation of carbachol-precontracted rat tracheal rings with reduced responsiveness to beta adrenergic receptor agonist; conditions: for response of carbachol-precontracted trachea to beta adrenergic receptor agonist: 300 nM carbachol, 1 μM isoproterenol, 1 μM formoterol or 30 μM albuterol, FIG. 1A-C; for relaxation by second addition of beta agonist after the response to 3 μM formoterol has faded: second dose 3 μM formoterol or 100 μM albuterol
# Protocol: Trachea were excised from male Sprague-Dawley rats, cleaned of connective tissue and cut into cylindrical segments of 2-3 mm length. Two stainless steel wires were guided through the lumen of the tracheal ring. One wire was fixed in the tissue bath and the other was connected to a force transducer via surgical silk. Preparations were mounted in 5 ml water-jacketed organ baths (Radnoti Glass Technology) filled with Krebs buffer (95 mM NaCl, 5 mM KCl, 2.6 mM CaCl2, 1.2 mM MgSO4, 24.9 mM NaHCO3, 1.2 mM KH2PO4, 10 mM glucose) maintained at 37° C. and gassed with 95% O2 and 5% CO2. Indomethacin (1 μM), a cyclooxygenase inhibitor, was added to the Krebs buffer and was present throughout the experiments. Contractile tensions were measured using an isometric force transducer (Grass Instruments) and signals were analyzed using specialized software (Chart v5.5, ADInstruments). The preparations were allowed to equilibrate at a resting tension of 0.3 to 0.5 gm prior to two challenges with 60 mM KCl to assess tissue viability. After washing, tissues were treated with 300 nM carbachol for 10 to 15 minutes to induce a contractile response. Tissues were then treated with isoproterenol, formoterol, or albuterol to induce a relaxant response. […] After 10 minutes of formoterol treatment, these tissues were treated with a second dose of formoterol or with albuterol. After an additional 10 minutes, tissues were treated with a Rho kinase inhibitor. Basal tension was subtracted from all values and data were reported as a percentage of the maximal carbachol-induced contraction. Four parameters were analyzed for quantitation of efficacies: i) the maximal relaxation induced by initial formoterol treatment, ii) the fade of the response to the initial formoterol treatment, iii) the maximal relaxation induced by the second addition of a beta adrenergic receptor agonist, and iv) the maximal relaxation induced by Rho kinase inhibitor.
# rat tracheal rings [2] = test: Relaxation of carbachol-precontracted rat tracheal rings pretreated with vehicle or pro-inflammatory cytokines IL-1β and TNF-α; conditions: 300 nM carbachol, read-out: IC50 for relaxant response
# Protocol: Male Sprague-Dawley rats weighing 301-325 gm were sacrificed by asphyxiation in a CO2 chamber. Trachea were excised, cleaned of connective tissue and cut into cylindrical segments of 2-3 mm length. Tissues were treated for 18 hours at 37° C. in F12 media with penicillin-streptomycin and 0.1% BSA alone or with 10 ng/ml IL-1β and 100 ng/ml TNF-α. IL-1β and TNF-α are pro-inflammatory cytokines. Tissues were then washed free of cytokines with Krebs buffer. Contractile tensions were measured using an isometric force transducer (Grass Instruments) as described for Example 1 and signals were analyzed using specialized software (Chart v5.5, ADInstruments). Tissues were treated with 300 nM carbachol for 10 to 15 minutes to induce a contractile response. Beta adrenergic receptor agonist compounds, isoproterenol or albuterol, were added cumulatively to the bath every 2 to 3 minutes and reductions in tension were recorded. Alternatively, Rho kinase inhibitor compound was added cumulatively to the bath every 30 minutes and reductions in tension were recorded. Basal tension was subtracted from all values and data were reported as a percentage of the maximal carbachol-induced contraction. Data were fit to the Hill equation using GraphPad Prism v5 software.
# [3] = Pulmonary function test (FEV1 after methacholine provocation) in human patients treated with formoterol; assay type: in vivo; conditions: formoterol group compared to the placebo group, after 2 weeks
# Text: Patients with asthma or COPD are randomized to albuterol or Rho kinase inhibitor compound test groups. After 2-weeks of run-in period, subjects are given a methacholine provocation test (MPT) to induce bronchoconstriction followed by treatment with increasing doses of albuterol or with increasing doses of Rho kinase inhibitor compound to induce bronchorelaxation to establish the subject's baseline response to albuterol or Rho kinase inhibitor compound. Subjects from both test groups are then randomized to inhaled formoterol twice daily or placebo for 2 weeks. At the end of the trial period, the albuterol test group subjects are again administered a methacholine provocation test to induce bronchoconstriction followed by treatment with increasing doses of albuterol. Similarly, the Rho kinase inhibitor compound test group subjects are again administered a methacholine provocation test to induce bronchoconstriction followed by treatment with increasing doses of Rho kinase inhibitor compound to induce bronchorelaxation. The change in FEV1 after albuterol inhalation or administration of Rho kinase inhibitor compound is measured.
# [4] = cytokine-pretreated tissue (10 ng/ml IL-1β and 100 ng/ml TNF-α, 18 hours)
compound,measurement,setting,value
CC(C)(C)NCC(O)c1ccc(O)c(CO)c1 (centres unmarked) [albuterol],response of carbachol-precontracted trachea to beta adrenergic receptor agonist,rat tracheal rings [1],initial rapid and partial relaxation of the tissue followed by a slower fade of the response to a more contractile state
same,relaxation by second addition of beta agonist after the response to 3 μM formoterol has faded,rat tracheal rings [1],ineffective in relaxing the tracheal preparation
same,IC50,rat tracheal rings [2]; [4],411 nM
same,IC50,rat tracheal rings [2]; vehicle-pretreated tissue,239 nM
same,bronchodilator response as measured by FEV1,[3],decrease in the bronchodilator response
COc1ccc(CC(C)NCC(O)c2ccc(O)c(NC=O)c2)cc1 (centres unmarked) [formoterol],response of carbachol-precontracted trachea to beta adrenergic receptor agonist,rat tracheal rings [1],initial rapid and partial relaxation of the tissue followed by a slower fade of the response to a more contractile state
same,maximal relaxation induced by initial formoterol treatment,"rat tracheal rings [1]; 3 μM formoterol, FIGS. 4-7",approximately 30 % of the initial carbachol response
same,relaxation by second addition of beta agonist after the response to 3 μM formoterol has faded,rat tracheal rings [1],ineffective in relaxing the tracheal preparation
CC(C)NCC(O)c1ccc(O)c(O)c1 (centres unmarked) [isoproterenol],response of carbachol-precontracted trachea to beta adrenergic receptor agonist,rat tracheal rings [1],initial rapid and partial relaxation of the tissue followed by a slower fade of the response to a more contractile state
same,IC50,rat tracheal rings [2]; [4],71 nM
same,IC50,rat tracheal rings [2]; vehicle-pretreated tissue,33 nM

# Source: patent publication US20100204210A1, “METHOD FOR TREATING PULMONARY DISEASES USING RHO KINASE INHIBITOR COMPOUNDS” (priority 2008, published 2010)
